In ChEMBL document CHEMBL3286240, “Inhibition of Enterococcus faecalis biofilm formation by highly active lactones and lactams analogues of rubrolides” (Eur J Med Chem, 2014):
Converted amounts (≈) assume the structure as drawn.

test system: Enterococcus faecalis; experiment: Antimicrobial activity against Enterococcus faecalis assessed as bacterial growth at 43.8 ug/ml after 20 hrs by microtiter plate assay; format: functional

SMILES | Activity
COc1ccc(Br)cc1C1=C(Br)C(=O)N(CC(C)C)/C1=C/c1ccc(Br)cc1 | 22.5%
COc1ccc(C)cc1C1=C(Br)C(=O)N(CC(C)C)/C1=C/c1cccc(Cl)c1 | 38.4%
COc1ccc(C)cc1C1=C(Br)C(=O)N(CC(C)C)/C1=C/c1ccccc1Cl | 58.8%
COc1ccc(Cl)cc1C1=C(Br)C(=O)N(CC(C)C)/C1=C/c1ccccc1Br | 43.4%
COc1cccc(/C=C2\C(c3cc(Cl)ccc3OC)=C(Br)C(=O)N2CC(C)C)c1 | 33.5%

test system: Enterococcus faecalis; experiment: Antimicrobial activity against Enterococcus faecalis assessed as bacterial growth at 5.5 ug/ml after 20 hrs by microtiter plate assay; format: functional

SMILES | Activity
COc1ccc(Br)cc1C1=C(Br)C(=O)N(CC(C)C)/C1=C/c1ccc(Br)cc1 | 9.6%
COc1ccc(C)cc1C1=C(Br)C(=O)N(CC(C)C)/C1=C/c1cccc(Cl)c1 | 10.5%
COc1ccc(C)cc1C1=C(Br)C(=O)N(CC(C)C)/C1=C/c1ccccc1Cl | 36.6%
COc1ccc(Cl)cc1C1=C(Br)C(=O)N(CC(C)C)/C1=C/c1ccccc1Br | 43.4%
COc1cccc(/C=C2\C(c3cc(Cl)ccc3OC)=C(Br)C(=O)N2CC(C)C)c1 | 33.7%

test system: Enterococcus faecalis; experiment: Antimicrobial activity against Enterococcus faecalis assessed as bacterial growth at 0.68 ug/ml after 20 hrs by microtiter plate assay; format: functional

SMILES | Activity
COc1ccc(Br)cc1C1=C(Br)C(=O)N(CC(C)C)/C1=C/c1ccc(Br)cc1 | 1.8%
COc1ccc(C)cc1C1=C(Br)C(=O)N(CC(C)C)/C1=C/c1cccc(Cl)c1 | 1.4%
COc1ccc(C)cc1C1=C(Br)C(=O)N(CC(C)C)/C1=C/c1ccccc1Cl | -1%
COc1ccc(Cl)cc1C1=C(Br)C(=O)N(CC(C)C)/C1=C/c1ccccc1Br | 9.1%
COc1cccc(/C=C2\C(c3cc(Cl)ccc3OC)=C(Br)C(=O)N2CC(C)C)c1 | -6%

test system: Enterococcus faecalis; experiment: Antimicrobial activity against Enterococcus faecalis assessed as bacterial growth at 0.17 ug/ml after 20 hrs by microtiter plate assay; format: functional

SMILES | Activity
COc1ccc(Br)cc1C1=C(Br)C(=O)N(CC(C)C)/C1=C/c1ccc(Br)cc1 | 0.8%
COc1ccc(C)cc1C1=C(Br)C(=O)N(CC(C)C)/C1=C/c1cccc(Cl)c1 | 0.4%
COc1ccc(C)cc1C1=C(Br)C(=O)N(CC(C)C)/C1=C/c1ccccc1Cl | -1.5%
COc1ccc(Cl)cc1C1=C(Br)C(=O)N(CC(C)C)/C1=C/c1ccccc1Br | 0.5%
COc1cccc(/C=C2\C(c3cc(Cl)ccc3OC)=C(Br)C(=O)N2CC(C)C)c1 | -9.4%

test system: Enterococcus faecalis; experiment: Antimicrobial activity against Enterococcus faecalis assessed as bacterial growth at 2.73 ug/ml after 20 hrs by microtiter plate assay; format: functional

SMILES | Activity
COc1ccc(Br)cc1C1=C(Br)C(=O)N(CC(C)C)/C1=C/c1ccc(Br)cc1 | 20.2%
COc1ccc(C)cc1C1=C(Br)C(=O)N(CC(C)C)/C1=C/c1cccc(Cl)c1 | 5%
COc1ccc(C)cc1C1=C(Br)C(=O)N(CC(C)C)/C1=C/c1ccccc1Cl | 27.8%
COc1ccc(Cl)cc1C1=C(Br)C(=O)N(CC(C)C)/C1=C/c1ccccc1Br | 33.3%
COc1cccc(/C=C2\C(c3cc(Cl)ccc3OC)=C(Br)C(=O)N2CC(C)C)c1 | 8.1%

test system: Enterococcus faecalis; experiment: Antimicrobial activity against Enterococcus faecalis assessed as bacterial growth at 1.37 ug/ml after 20 hrs by microtiter plate assay; format: functional

SMILES | Activity
COc1ccc(Br)cc1C1=C(Br)C(=O)N(CC(C)C)/C1=C/c1ccc(Br)cc1 | 15.8%
COc1ccc(C)cc1C1=C(Br)C(=O)N(CC(C)C)/C1=C/c1cccc(Cl)c1 | 1.4%
COc1ccc(C)cc1C1=C(Br)C(=O)N(CC(C)C)/C1=C/c1ccccc1Cl | 15.7%
COc1ccc(Cl)cc1C1=C(Br)C(=O)N(CC(C)C)/C1=C/c1ccccc1Br | 19.2%
COc1cccc(/C=C2\C(c3cc(Cl)ccc3OC)=C(Br)C(=O)N2CC(C)C)c1 | -4.8%

test system: Enterococcus faecalis; experiment: Antimicrobial activity against Enterococcus faecalis assessed as bacterial growth at 0.34 ug/ml after 20 hrs by microtiter plate assay; format: functional

SMILES | Activity
COc1ccc(Br)cc1C1=C(Br)C(=O)N(CC(C)C)/C1=C/c1ccc(Br)cc1 | -4.4%
COc1ccc(C)cc1C1=C(Br)C(=O)N(CC(C)C)/C1=C/c1cccc(Cl)c1 | 6.8%
COc1ccc(C)cc1C1=C(Br)C(=O)N(CC(C)C)/C1=C/c1ccccc1Cl | -1.8%
COc1ccc(Cl)cc1C1=C(Br)C(=O)N(CC(C)C)/C1=C/c1ccccc1Br | 7.4%
COc1cccc(/C=C2\C(c3cc(Cl)ccc3OC)=C(Br)C(=O)N2CC(C)C)c1 | -6.4%

test system: Enterococcus faecalis; experiment: Antimicrobial activity against Enterococcus faecalis assessed as bacterial growth at 10.9 ug/ml after 20 hrs by microtiter plate assay; format: functional

SMILES | Activity
COc1ccc(Br)cc1C1=C(Br)C(=O)N(CC(C)C)/C1=C/c1ccc(Br)cc1 | 10.6%
COc1ccc(C)cc1C1=C(Br)C(=O)N(CC(C)C)/C1=C/c1cccc(Cl)c1 | 19.4%
COc1ccc(C)cc1C1=C(Br)C(=O)N(CC(C)C)/C1=C/c1ccccc1Cl | 36.1%
COc1ccc(Cl)cc1C1=C(Br)C(=O)N(CC(C)C)/C1=C/c1ccccc1Br | 42.7%
COc1cccc(/C=C2\C(c3cc(Cl)ccc3OC)=C(Br)C(=O)N2CC(C)C)c1 | 20.8%

test system: Enterococcus faecalis; experiment: Antimicrobial activity against Enterococcus faecalis assessed as inhibition of biofilm formation after 20 hrs by crystal violet staining analysis; format: functional, organism-based

SMILES | IC50
COc1ccc(Br)cc1C1=C(Br)C(=O)N(CC(C)C)/C1=C/c1ccc(Br)cc1 | 3.35 µg/mL (≈ 5.88 µM)
COc1ccc(C)cc1C1=C(Br)C(=O)N(CC(C)C)/C1=C/c1cccc(Cl)c1 | 59.3 µg/mL (≈ 129 µM)
COc1ccc(C)cc1C1=C(Br)C(=O)N(CC(C)C)/C1=C/c1ccccc1Cl | 1.04 µg/mL (≈ 2.26 µM)
COc1ccc(Cl)cc1C1=C(Br)C(=O)N(CC(C)C)/C1=C/c1ccccc1Br | 0.76 µg/mL (≈ 1.45 µM)
COc1cccc(/C=C2\C(c3cc(Cl)ccc3OC)=C(Br)C(=O)N2CC(C)C)c1 | 3.26 µg/mL (≈ 6.84 µM)

test system: Enterococcus faecalis; experiment: Antimicrobial activity against Enterococcus faecalis assessed as bacterial growth at 21.9 ug/ml after 20 hrs by microtiter plate assay; format: functional

SMILES | Activity
COc1ccc(Br)cc1C1=C(Br)C(=O)N(CC(C)C)/C1=C/c1ccc(Br)cc1 | 18.1%
COc1ccc(C)cc1C1=C(Br)C(=O)N(CC(C)C)/C1=C/c1cccc(Cl)c1 | 31.8%
COc1ccc(C)cc1C1=C(Br)C(=O)N(CC(C)C)/C1=C/c1ccccc1Cl | 46.9%
COc1ccc(Cl)cc1C1=C(Br)C(=O)N(CC(C)C)/C1=C/c1ccccc1Br | 32.4%
COc1cccc(/C=C2\C(c3cc(Cl)ccc3OC)=C(Br)C(=O)N2CC(C)C)c1 | 30.1%

test system: Enterococcus faecalis; experiment: Antimicrobial activity against Enterococcus faecalis assessed as bacterial growth at 87.5 ug/ml after 20 hrs by microtiter plate assay; format: functional

SMILES | Activity
COc1ccc(Br)cc1C1=C(Br)C(=O)N(CC(C)C)/C1=C/c1ccc(Br)cc1 | 57.1%
COc1ccc(C)cc1C1=C(Br)C(=O)N(CC(C)C)/C1=C/c1cccc(Cl)c1 | 81.4%
COc1ccc(C)cc1C1=C(Br)C(=O)N(CC(C)C)/C1=C/c1ccccc1Cl | 82%
COc1ccc(Cl)cc1C1=C(Br)C(=O)N(CC(C)C)/C1=C/c1ccccc1Br | 60.9%
COc1cccc(/C=C2\C(c3cc(Cl)ccc3OC)=C(Br)C(=O)N2CC(C)C)c1 | 56.3%
